Test results from EP4603105A1, “PHARMACEUTICAL COMPOSITION CONTAINING CYCLIC COMPOUND HAVING SELECTIVE KRAS INHIBITORY EFFECT AGAINST HRAS AND NRAS” (CHUGAI SEIYAKU KABUSHIKI KAISHA, priority 2022, dated 2024).

What was measured:
[1] = target: GDP-bound NRAS wild-type protein (Homo sapiens, UniProt P01111); experiment: Binding to NRAS by surface plasmon resonance (SPR), KD and KD ratio to KRAS; conditions: ratio of KD for GDP-bound NRAS wild-type protein to KD for KRAS
Outline: (§1)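 Compound binding is evaluated by SPR single-cycle kinetics, with concentrations added intermittently from low to high for 75 s each. Target surfaces carry GDP-loaded biotinylated Avi-RAS at about 100–300 RU, regenerated after each cycle; temperature 30°C. A 1:1 binding model gives KD.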

[2] = test system: human lung cancer strain NCI-H441; assay type: cell-based
Outline: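 Proliferation was scored by […] measured after the reagent was added to cultures kept at 37°C in 5% carbon dioxide.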

[3] = target: HRAS wild-type protein (Homo sapiens, UniProt P01112); experiment: Binding to HRAS by surface plasmon resonance (SPR), KD and KD ratio to KRAS; conditions: ratio of KD for HRAS wild-type protein to KD for KRAS
Outline: as §1

Chain of GDP-bound NRAS wild-type protein (P01111 whole entry): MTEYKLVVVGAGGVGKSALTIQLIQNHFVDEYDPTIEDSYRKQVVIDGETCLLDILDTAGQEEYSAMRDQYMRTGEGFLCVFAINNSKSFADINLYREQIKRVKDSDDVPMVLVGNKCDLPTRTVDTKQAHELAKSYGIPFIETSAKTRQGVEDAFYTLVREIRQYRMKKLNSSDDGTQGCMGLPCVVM
Chain of HRAS wild-type protein (P01112 whole entry): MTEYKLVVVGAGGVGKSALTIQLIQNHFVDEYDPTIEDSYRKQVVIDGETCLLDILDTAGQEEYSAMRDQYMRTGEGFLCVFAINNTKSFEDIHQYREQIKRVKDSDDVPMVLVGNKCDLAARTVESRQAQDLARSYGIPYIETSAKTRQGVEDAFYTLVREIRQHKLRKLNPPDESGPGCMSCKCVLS

CCC[C@H]1C(=O)N[C@@H]([C@@H](C)CC)C(=O)N(C)CC(=O)N(C)[C@H]2C/C=C\CCN(C2=O)[C@@H](Cc2ccc(C(F)(F)F)cc2)C(=O)N(C)CC(=O)N[C@@H](CCc2ccc(CC)c(Cl)c2)C(=O)N2C[C@H](OCC)C[C@H]2C(=O)NC2(CC(C)(C)C2)C(=O)N(C)[C@@H](C(CC)CC)C(=O)N(C)[C@H](C(=O)N(C)C)CC(=O)N1C [PP2777]
NRAS /KRAS [1]: AA (a compound having 20 or more is denoted as AA)
IC50 [2]: 111 nM
HRAS /KRAS [3]: A (a compound having 10 or more and less than 20 is denoted as A)

CCC[C@H]1C(=O)N[C@@H]([C@@H](C)CC)C(=O)N(C)CC(=O)N(C)[C@H]2C/C=C\CCN(C2=O)[C@@H](Cc2ccc(C)cc2)C(=O)N(C)CC(=O)N[C@@H](CCc2ccc(CC)c(Cl)c2)C(=O)N2C[C@H](OCC)C[C@H]2C(=O)NC2(CC(C)(C)C2)C(=O)N(C)[C@@H](C2CCCC2)C(=O)N(C)[C@H](C(=O)N(C)C)CC(=O)N1C [PP2778]
NRAS /KRAS [1]: A (a compound having 10 or more and less than 20 is denoted as A)
IC50 [2]: 22.3 nM
HRAS /KRAS [3]: A (a compound having 10 or more and less than 20 is denoted as A)

CCC[C@H]1C(=O)N[C@@H]([C@@H](C)CC)C(=O)N(C)CC(=O)N(C)[C@H]2C/C=C\CCN(C2=O)[C@@H](Cc2ccc(C(F)(F)F)cc2)C(=O)N(C)CC(=O)N[C@@H](CCc2cc(F)c(C(F)F)c(F)c2)C(=O)N2C[C@H](OCC)C[C@H]2C(=O)NC2(CC(C)(C)C2)C(=O)N(C)[C@@H](C2CCCC2)C(=O)N(C)[C@H](C(=O)N(C)C)CC(=O)N1C [PP2780]
NRAS /KRAS [1]: A (a compound having 10 or more and less than 20 is denoted as A)
IC50 [2]: 17.8 nM
HRAS /KRAS [3]: A (a compound having 10 or more and less than 20 is denoted as A)

CCC[C@H]1C(=O)N[C@@H]([C@@H](C)CC)C(=O)N(C)CC(=O)N(C)[C@H]2C/C=C\CCN(C2=O)[C@@H](Cc2ccc(C(F)(F)F)cc2)C(=O)N(C)CC(=O)N[C@@H](CCc2cc(F)c(C(F)F)c(F)c2)C(=O)N2C[C@H](OCC)C[C@H]2C(=O)NC2(CC(C)(C)C2)C(=O)N(C)[C@@H](C(CC)CC)C(=O)N(C)[C@H](C(=O)N(C)C)CC(=O)N1C [PP2781]
NRAS /KRAS [1]: AA (a compound having 20 or more is denoted as AA)
IC50 [2]: 64.1 nM
HRAS /KRAS [3]: A (a compound having 10 or more and less than 20 is denoted as A)

CCC[C@H]1C(=O)N[C@@H]([C@@H](C)CC)C(=O)N(C)CC(=O)N(C)[C@H]2C/C=C\CCN(C2=O)[C@@H](Cc2ccc(C)cc2)C(=O)N(C)CC(=O)N[C@@H](CCc2cc(F)c(C(F)F)c(F)c2)C(=O)N2C[C@H](OCC)C[C@H]2C(=O)NC2(CC(C)(C)C2)C(=O)N(C)[C@@H](C2CCCC2)C(=O)N(C)[C@H](C(=O)N(C)C)CC(=O)N1C [PP2782]
NRAS /KRAS [1]: A (a compound having 10 or more and less than 20 is denoted as A)
IC50 [2]: 59.1 nM
HRAS /KRAS [3]: A (a compound having 10 or more and less than 20 is denoted as A)

CCC[C@H]1C(=O)N[C@@H]([C@@H](C)CC)C(=O)N(C)CC(=O)N(C)[C@H]2C/C=C\CCN(C2=O)[C@@H](Cc2ccc(C(F)(F)F)cc2)C(=O)N(C)CC(=O)N[C@@H](CCc2ccc(Cl)c(C(F)(F)F)c2)C(=O)N2C[C@H](OCC)C[C@H]2C(=O)NC2(CC(C)(C)C2)C(=O)N(C)[C@@H](C2CCCC2)C(=O)N(C)[C@H](C(=O)N(C)C)CC(=O)N1C [PP2784]
NRAS /KRAS [1]: A (a compound having 10 or more and less than 20 is denoted as A)
IC50 [2]: 7.2 nM
HRAS /KRAS [3]: A (a compound having 10 or more and less than 20 is denoted as A)

CCC[C@H]1C(=O)N[C@@H]([C@@H](C)CC)C(=O)N(C)CC(=O)N(C)[C@H]2C/C=C\CCN(C2=O)[C@@H](Cc2ccc(C(F)(F)F)cc2)C(=O)N(C)CC(=O)N[C@@H](CCc2ccc(Cl)c(C(F)(F)F)c2)C(=O)N2C[C@H](OCC)C[C@H]2C(=O)NC2(CC(C)(C)C2)C(=O)N(C)[C@@H](C(CC)CC)C(=O)N(C)[C@H](C(=O)N(C)C)CC(=O)N1C [PP2785]
NRAS /KRAS [1]: AA (a compound having 20 or more is denoted as AA)
IC50 [2]: 10.5 nM
HRAS /KRAS [3]: A (a compound having 10 or more and less than 20 is denoted as A)

CCC[C@H]1C(=O)N[C@@H]([C@@H](C)CC)C(=O)N(C)CC(=O)N(C)[C@H]2C/C=C\CCN(C2=O)[C@@H](Cc2ccc(C)cc2)C(=O)N(C)CC(=O)N[C@@H](CCc2ccc(Cl)c(C(F)(F)F)c2)C(=O)N2C[C@H](OCC)C[C@H]2C(=O)NC2(CC(C)(C)C2)C(=O)N(C)[C@@H](C2CCCC2)C(=O)N(C)[C@H](C(=O)N(C)C)CC(=O)N1C [PP2786]
NRAS /KRAS [1]: A (a compound having 10 or more and less than 20 is denoted as A)
IC50 [2]: 9.8 nM
HRAS /KRAS [3]: A (a compound having 10 or more and less than 20 is denoted as A)

CCC[C@H]1C(=O)N[C@@H]([C@@H](C)CC)C(=O)N(C)CC(=O)N(C)[C@H]2C/C=C\CCN(C2=O)[C@@H](Cc2ccc(C)cc2)C(=O)N(C)CC(=O)N[C@@H](CCc2ccc(Cl)c(C(F)(F)F)c2)C(=O)N2C[C@H](OCC)C[C@H]2C(=O)NC2(CC(C)(C)C2)C(=O)N(C)[C@@H](C(CC)CC)C(=O)N(C)[C@H](C(=O)N(C)C)CC(=O)N1C [PP2787]
NRAS /KRAS [1]: AA (a compound having 20 or more is denoted as AA)
IC50 [2]: 22.1 nM
HRAS /KRAS [3]: A (a compound having 10 or more and less than 20 is denoted as A)

CCC[C@H]1C(=O)N[C@@H]([C@@H](C)CC)C(=O)N(C)CC(=O)N(C)[C@H]2C/C=C\CCN(C2=O)[C@@H](Cc2ccc(C(F)(F)F)cc2)C(=O)N(C)CC(=O)N[C@@H](CCc2ccc(Cl)c(OC)c2)C(=O)N2C[C@H](OCC)C[C@H]2C(=O)NC2(CC(C)(C)C2)C(=O)N(C)[C@@H](C2CCCC2)C(=O)N(C)[C@H](C(=O)N(C)C)CC(=O)N1C [PP2788]
NRAS /KRAS [1]: A (a compound having 10 or more and less than 20 is denoted as A)
IC50 [2]: 24.4 nM
HRAS /KRAS [3]: A (a compound having 10 or more and less than 20 is denoted as A)

CCC[C@H]1C(=O)N[C@@H]([C@@H](C)CC)C(=O)N(C)CC(=O)N(C)[C@H]2C/C=C\CCN(C2=O)[C@@H](Cc2ccc(C(F)(F)F)cc2)C(=O)N(C)CC(=O)N[C@@H](CCc2ccc(Cl)c(OC)c2)C(=O)N2C[C@H](OCC)C[C@H]2C(=O)NC2(CC(C)(C)C2)C(=O)N(C)[C@@H](C(CC)CC)C(=O)N(C)[C@H](C(=O)N(C)C)CC(=O)N1C [PP2789]
NRAS /KRAS [1]: AA (a compound having 20 or more is denoted as AA)
IC50 [2]: 47.3 nM
HRAS /KRAS [3]: A (a compound having 10 or more and less than 20 is denoted as A)

CCC[C@H]1C(=O)N[C@@H]([C@@H](C)CC)C(=O)N(C)CC(=O)N(C)[C@H]2C/C=C\CCN(C2=O)[C@@H](Cc2ccc(C)cc2)C(=O)N(C)CC(=O)N[C@@H](CCc2ccc(Cl)c(OC)c2)C(=O)N2C[C@H](OCC)C[C@H]2C(=O)NC2(CC(C)(C)C2)C(=O)N(C)[C@@H](C2CCCC2)C(=O)N(C)[C@H](C(=O)N(C)C)CC(=O)N1C [PP2790]
NRAS /KRAS [1]: A (a compound having 10 or more and less than 20 is denoted as A)
IC50 [2]: 59.4 nM
HRAS /KRAS [3]: A (a compound having 10 or more and less than 20 is denoted as A)

CCCC[C@H]1C(=O)N[C@@H]([C@@H](C)CC)C(=O)N(C)CC(=O)N(C)[C@H]2C/C=C\CCN(C2=O)[C@@H](Cc2ccc(C)cc2)C(=O)N(C)CC(=O)N[C@@H](CCc2cc(F)c(C(F)(F)F)c(F)c2)C(=O)N2C[C@H](OCC)C[C@H]2C(=O)NC2(CCC2)C(=O)N(C)[C@@H](C2CCCC2)C(=O)N(C)[C@H](C(=O)N(C)CC)CC(=O)N1C [PP2796]
NRAS /KRAS [1]: A (a compound having 10 or more and less than 20 is denoted as A)
IC50 [2]: 9.6 nM
HRAS /KRAS [3]: A (a compound having 10 or more and less than 20 is denoted as A)
